Experimental data: patent EP4660196A1, “CRYSTAL FORM OF COMPOUND, PREPARATION METHOD THEREFOR AND USE THEREOF” (Felicamed Biotechnology Co., Ltd., priority 2023, dated 2024)
Values joined by “and” are separate entries in the source; they are usually repeats but may differ in a detail not shown here. Equal entries are not always repeated.

Columns and labels:
[1] = Pharmacokinetics of free crystal form A in Beagle dogs (i.v. and intragastric); type: in vivo; details: dog
Protocol: Preparations were administered to the group C on the second day to the seventh day were prepared in the same way as that on the first day.
All the animals in this experiment were randomly divided into 4 groups (3 dogs/sex/group). The animals in the group A, the group B, and the group D were fasted before administration, and the animals in the group C were fasted before the first administration and the last administration. All the animals were fasted for at least 12 h before administration, and food was resumed 4 h after administration. All the animals had free access to water and food during the experiment. Table 25 Animal groups and administration methods
The animals in the group A were intravenously injected with the drug at 2 mg/kg, and blood samples were collected from the jugular vein before and 0.033 h, 0.083 h, 0.25 h, 0.5 h, 1 h, 2 h, 4 h, 8 h, 12 h, and 24 h after administration. The animals in the group B and the group D received single intragastric administration of the drugs at 2 mg/kg and 20 mg/kg, respectively, and blood samples were collected from the jugular vein before and 0.083 h, 0.25 h, 0.5 h, 1 h, 2 h, 4 h, 8 h, 12 h, and 24 h after administration. […] Blood samples were collected from the jugular vein before the first administration and the seventh administration and 0.083 h, 0.25 h, 0.5 h, 1 h, 2 h, 4 h, 8 h, 12 h, and 24 h after administration. Blood samples were collected from the jugular vein before administration and 0.5 h after administration from the second administration to the sixth administration. The sample collected before the second administration was the sample collected 24 h after the first administration.
The blood samples from the animals were collected through the jugular vein, with a blood sample volume of 0.5 mL/time. All collected whole blood samples were placed in centrifuge tubes containing ethylene diamine tetraacetic acid potassium salt (EDTA-K2), and the centrifuge tubes were turned upside down to allow the anticoagulant and blood to be fully mixed. All the samples were placed on wet ice before centrifugation and centrifuged at 1524 g for 10 min to separate plasma. The plasma samples were transferred to new centrifuge tubes and stored at -90°C to […] until analysis.
The drug concentration in the plasma of each Beagle dog was determined by liquid chromatography with tandem mass spectrometry (LC-MS/MS). The obtained plasma concentration data was analyzed by using the pharmacokinetic processing software WinNonlin 8.0 with a non-compartmental model to calculate relevant pharmacokinetic parameters.

[2] = Solid-state stability (XRPD, UPLC purity); details: for Crystal form Transform: XRPD; for Purity (area%): starting purity 99.82 (hydrochloride), 99.72 (free); for Area (%): UPLC main peak (#Peak 1, RRT 1.00)

CC[S@@](=N)(=O)C[C@H]1CC[C@H](N(C)c2ncnc3[nH]ccc23)CC1 [Free crystal form A]
AUC0-t of the unit dose ([1]; in vivo): 4380 ng·kg·h/mL/mg and 4990 ng·kg·h/mL/mg and 5030 ng·kg·h/mL/mg
clinical observation ([1]; in vivo): no obvious abnormalities were found
male-to-female ratio of AUC0-t ([1]; in vivo): 1.10 and 0.716 and 0.877
male-to-female ratio of Cmax ([1]; in vivo): 1.36 and 0.810 and 0.894
ratio of AUC0-t of the seventh administration and the first administration ([1]; in vivo): 0.887
ratio of Cmax of the seventh administration and the first administration ([1]; in vivo): 0.964
unit dose AUC0-t ratio of 20 mg/kg and 2 mg/kg ([1]; in vivo): 1.15
unit dose Cmax ([1]; in vivo): 675 kg·ng/mL/mg and 785 kg·ng/mL/mg and 665 kg·ng/mL/mg
unit dose Cmax ratio of 20 mg/kg and 2 mg/kg ([1]; in vivo): 0.985
steady-state volume of distribution (Vdss) relative to total body fluid volume ([1]; in vivo, iv, 2 mg/kg): 1.57 times
total clearance (CL) relative to liver blood flow ([1]; in vivo, iv, 2 mg/kg): 0.110 times
Tmax ([1]; plasma, po, read-out: average time to peak drug concentration): 0.792 to 1.33 h
Crystal form Transform ([2]; 25°C/60% RH/4 weeks, open): No
Purity (area%) ([2]; 25°C/60% RH/4 weeks, open): 99.71 area%
Crystal form Transform ([2]; 40°C/75% RH/4 weeks, open): No
Purity (area%) ([2]; 40°C/75% RH/4 weeks, open): 99.72 area%
Crystal form Transform ([2]; 80°C/1 d, closed): No
Area (%) ([2]; 25°C/60% RH/4 weeks): 99.71%
Area (%) ([2]; 40°C/75% RH/4 weeks): 99.72%
Area (%) ([2]; 80°C/1 d): 99.71%
